Results as given in patent US20110250135A1, “Piperazine Derivatives for Binding and Imaging Amyloid Plaques and Their Use” (Bayer Schering Pharma Aktiengesellschaft, priority 2008, published 2011).

Experiments:
[1] = Biodistribution: organ distribution of F-18 signal in mice; assay type: in vivo, male NMRI mice; settings: for Organ distribution of F-18 signal, intestine: intestine (with content); for Organ distribution of F-18 signal, stomach: stomach (without content)
Procedure: Biodistribution and excretion studies were performed in male NMRI mice (body weight app. 30g; 3 animals per time point). The animals were kept under normal laboratory conditions at a temperature of 22±2° C. and a dark/light rhythm of 12 hours. Food and water were provided ad libitium. During an acclimation period of at least 3 days before the beginning of the study animals were clinically examined to ascertain the absence of abnormal clinical signs. At 2, 5, 30, 60, 240 min post intravenous injection via the tail vein of ca. 150 kBq in 100 μl of the test compound, urine and feces were quantitatively collected. At the same time points, animals were sacrificed by decapitation and under isoflurane anaesthesia and the following organs and tissues were removed for the determination of radioactivity using a gamma-counter: spleen, liver, kidney, lung, femur, heart, brain, fat, thyroid, muscle, skin, blood, tail, stomach (without content), testicle, intestine (with content), pancreas, adrenals, and the remaining body. For analysis the decay corrected percentage of the injected dose per tissue weight (% ID/g±standard deviation) was calculated.

Aβ plaques = biological target: T1, Aβ plaques (Homo sapiens, UniProt P05067); assay: Autoradiographical analysis of binding to cryosections from cortex of AD patients and controls; settings: F-18 labeled compound; Alzheimer's disease patients (AD) vs controls without Aβ plaques
T1 construct: controls without Aβ plaques; from tissue; host or cells: frontal lobe / cortex sections (frozen and paraffin) from AD patients, FTD patients and age-matched controls
Excerpt: Fresh frozen as well as paraffin embedded sections of the frontal lobe from Alzheimer's dementia patients, frontotemporal dementia patients and age matched controls were used for the study. Frozen sections, sliced at 18 μm thickness on a cryostate (Leica, Germany) and paraffin sections, sliced on a sliding microtom (Leica) at a thickness of 6 μm, were mounted onto glass slides (Superfrost Plus, Fa.Menzel, Braunschweig Germany). Frozen sections were allowed to adhere to the slides for several nights at −20° C. The paraffin sections were deparaffinized using routine histological methods. For binding studies sections were incubated with the F-18 labeled test compound at 10 Bq/μl diluted in 25 mM Hepes buffer, pH 7.4, 0.1% (BSA) (200-300 μl/slide) for 1.5 hour at room temperature in a humidified chamber. For blocking experiments a 1000-fold access of the unlabeled test substance was added to the incubation mixture. After hybridization, sections were washed four times with Hepes buffer, 0.1% BSA (or alternatively two times with 40% ethanol) and finally dipped two times into dest. water for 10 sec. The air-dried sections were exposed to imaging plates and signals were detected by a phosphoimager device (Fuji BAS5000).

T1 sequence (P05067 672-713 limits assumed): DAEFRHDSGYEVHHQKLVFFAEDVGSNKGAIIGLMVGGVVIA

Structure (SMILES): O=C(NCC(=O)N1CCN(c2ccc(OCc3ccccc3)cc2)CC1)c1ccnc([18F])c1 [Example 11c, N-{2-[4-(4-Benzyloxy-phenyl)-piperazin-1-yl]-2-oxoethyl}-2-[F-18]-fluoro-isonicotinamide]
- Organ distribution of F-18 signal, adrenals ([1]; 2 min post i.v. injection): 9.24 % ID/g
- Organ distribution of F-18 signal, adrenals ([1]; 5 min post i.v. injection): 5.60 % ID/g
- Organ distribution of F-18 signal, adrenals ([1]; 30 min post i.v. injection): 2.41 % ID/g
- Organ distribution of F-18 signal, adrenals ([1]; 60 min post i.v. injection): 2.45 % ID/g
- Organ distribution of F-18 signal, adrenals ([1]; 240 min post i.v. injection): 0.30 % ID/g
- Organ distribution of F-18 signal, blood ([1]; 2 min post i.v. injection): 1.70 % ID/g
- Organ distribution of F-18 signal, blood ([1]; 5 min post i.v. injection): 1.78 % ID/g
- Organ distribution of F-18 signal, blood ([1]; 30 min post i.v. injection): 1.13 % ID/g
- Organ distribution of F-18 signal, blood ([1]; 60 min post i.v. injection): 0.49 % ID/g
- Organ distribution of F-18 signal, blood ([1]; 240 min post i.v. injection): 0.12 % ID/g
- Organ distribution of F-18 signal, brain ([1]; 2 min post i.v. injection): 5.54 % ID/g
- Organ distribution of F-18 signal, brain ([1]; 5 min post i.v. injection): 4.73 % ID/g
- Organ distribution of F-18 signal, brain ([1]; 30 min post i.v. injection): 1.00 % ID/g
- Organ distribution of F-18 signal, brain ([1]; 60 min post i.v. injection): 0.34 % ID/g
- Organ distribution of F-18 signal, brain ([1]; 240 min post i.v. injection): 0.05 % ID/g
- Organ distribution of F-18 signal, fat ([1]; 2 min post i.v. injection): 1.52 % ID/g
- Organ distribution of F-18 signal, fat ([1]; 5 min post i.v. injection): 1.84 % ID/g
- Organ distribution of F-18 signal, fat ([1]; 30 min post i.v. injection): 1.94 % ID/g
- Organ distribution of F-18 signal, fat ([1]; 60 min post i.v. injection): 0.80 % ID/g
- Organ distribution of F-18 signal, fat ([1]; 240 min post i.v. injection): 0.08 % ID/g
- Organ distribution of F-18 signal, femur ([1]; 2 min post i.v. injection): 1.53 % ID/g
- Organ distribution of F-18 signal, femur ([1]; 5 min post i.v. injection): 1.54 % ID/g
- Organ distribution of F-18 signal, femur ([1]; 30 min post i.v. injection): 0.68 % ID/g
- Organ distribution of F-18 signal, femur ([1]; 60 min post i.v. injection): 0.38 % ID/g
- Organ distribution of F-18 signal, femur ([1]; 240 min post i.v. injection): 0.16 % ID/g
- Organ distribution of F-18 signal, heart ([1]; 2 min post i.v. injection): 4.68 % ID/g
- Organ distribution of F-18 signal, heart ([1]; 5 min post i.v. injection): 4.36 % ID/g
- Organ distribution of F-18 signal, heart ([1]; 30 min post i.v. injection): 1.54 % ID/g
- Organ distribution of F-18 signal, heart ([1]; 60 min post i.v. injection): 0.54 % ID/g
- Organ distribution of F-18 signal, heart ([1]; 240 min post i.v. injection): 0.13 % ID/g
- Organ distribution of F-18 signal, intestine ([1]; 2 min post i.v. injection): 2.14 % ID/g
- Organ distribution of F-18 signal, intestine ([1]; 5 min post i.v. injection): 2.66 % ID/g
- Organ distribution of F-18 signal, intestine ([1]; 30 min post i.v. injection): 10.01 % ID/g
- Organ distribution of F-18 signal, intestine ([1]; 60 min post i.v. injection): 14.79 % ID/g
- Organ distribution of F-18 signal, intestine ([1]; 240 min post i.v. injection): 13.00 % ID/g
- Organ distribution of F-18 signal, kidney ([1]; 2 min post i.v. injection): 7.68 % ID/g
- Organ distribution of F-18 signal, kidney ([1]; 5 min post i.v. injection): 8.07 % ID/g
- Organ distribution of F-18 signal, kidney ([1]; 30 min post i.v. injection): 7.83 % ID/g
- Organ distribution of F-18 signal, kidney ([1]; 60 min post i.v. injection): 4.37 % ID/g
- Organ distribution of F-18 signal, kidney ([1]; 240 min post i.v. injection): 1.12 % ID/g
- Organ distribution of F-18 signal, liver ([1]; 2 min post i.v. injection): 7.17 % ID/g
- Organ distribution of F-18 signal, liver ([1]; 5 min post i.v. injection): 12.14 % ID/g
- Organ distribution of F-18 signal, liver ([1]; 30 min post i.v. injection): 9.41 % ID/g
- Organ distribution of F-18 signal, liver ([1]; 60 min post i.v. injection): 4.72 % ID/g
- Organ distribution of F-18 signal, liver ([1]; 240 min post i.v. injection): 2.09 % ID/g
- Organ distribution of F-18 signal, lung ([1]; 2 min post i.v. injection): 4.14 % ID/g
- Organ distribution of F-18 signal, lung ([1]; 5 min post i.v. injection): 3.76 % ID/g
- Organ distribution of F-18 signal, lung ([1]; 30 min post i.v. injection): 1.65 % ID/g
- Organ distribution of F-18 signal, lung ([1]; 60 min post i.v. injection): 0.69 % ID/g
- Organ distribution of F-18 signal, lung ([1]; 240 min post i.v. injection): 0.31 % ID/g
- Organ distribution of F-18 signal, muscle ([1]; 2 min post i.v. injection): 2.38 % ID/g
- Organ distribution of F-18 signal, muscle ([1]; 5 min post i.v. injection): 2.54 % ID/g
- Organ distribution of F-18 signal, muscle ([1]; 30 min post i.v. injection): 1.03 % ID/g
- Organ distribution of F-18 signal, muscle ([1]; 60 min post i.v. injection): 0.38 % ID/g
- Organ distribution of F-18 signal, muscle ([1]; 240 min post i.v. injection): 0.07 % ID/g
- Organ distribution of F-18 signal, pancreas ([1]; 2 min post i.v. injection): 4.44 % ID/g
- Organ distribution of F-18 signal, pancreas ([1]; 5 min post i.v. injection): 3.97 % ID/g
- Organ distribution of F-18 signal, pancreas ([1]; 30 min post i.v. injection): 2.20 % ID/g
- Organ distribution of F-18 signal, pancreas ([1]; 60 min post i.v. injection): 0.77 % ID/g
- Organ distribution of F-18 signal, pancreas ([1]; 240 min post i.v. injection): 0.18 % ID/g
- Organ distribution of F-18 signal, skin ([1]; 2 min post i.v. injection): 1.22 % ID/g
- Organ distribution of F-18 signal, skin ([1]; 5 min post i.v. injection): 1.80 % ID/g
- Organ distribution of F-18 signal, skin ([1]; 30 min post i.v. injection): 1.43 % ID/g
- Organ distribution of F-18 signal, skin ([1]; 60 min post i.v. injection): 0.66 % ID/g
- Organ distribution of F-18 signal, skin ([1]; 240 min post i.v. injection): 0.10 % ID/g
- Organ distribution of F-18 signal, spleen ([1]; 2 min post i.v. injection): 1.47 % ID/g
- Organ distribution of F-18 signal, spleen ([1]; 5 min post i.v. injection): 2.01 % ID/g
- Organ distribution of F-18 signal, spleen ([1]; 30 min post i.v. injection): 0.93 % ID/g
- Organ distribution of F-18 signal, spleen ([1]; 60 min post i.v. injection): 0.37 % ID/g
- Organ distribution of F-18 signal, spleen ([1]; 240 min post i.v. injection): 0.09 % ID/g
- Organ distribution of F-18 signal, stomach ([1]; 2 min post i.v. injection): 3.46 % ID/g
- Organ distribution of F-18 signal, stomach ([1]; 5 min post i.v. injection): 3.07 % ID/g
- Organ distribution of F-18 signal, stomach ([1]; 30 min post i.v. injection): 3.10 % ID/g
- Organ distribution of F-18 signal, stomach ([1]; 60 min post i.v. injection): 1.13 % ID/g
- Organ distribution of F-18 signal, stomach ([1]; 240 min post i.v. injection): 0.34 % ID/g
- Organ distribution of F-18 signal, tail ([1]; 2 min post i.v. injection): 8.55 % ID/g
- Organ distribution of F-18 signal, tail ([1]; 5 min post i.v. injection): 5.41 % ID/g
- Organ distribution of F-18 signal, tail ([1]; 30 min post i.v. injection): 3.21 % ID/g
- Organ distribution of F-18 signal, tail ([1]; 60 min post i.v. injection): 0.87 % ID/g
- Organ distribution of F-18 signal, tail ([1]; 240 min post i.v. injection): 0.39 % ID/g
- Organ distribution of F-18 signal, testicle ([1]; 2 min post i.v. injection): 1.36 % ID/g
- Organ distribution of F-18 signal, testicle ([1]; 5 min post i.v. injection): 1.70 % ID/g
- Organ distribution of F-18 signal, testicle ([1]; 30 min post i.v. injection): 1.13 % ID/g
- Organ distribution of F-18 signal, testicle ([1]; 60 min post i.v. injection): 0.65 % ID/g
- Organ distribution of F-18 signal, testicle ([1]; 240 min post i.v. injection): 0.15 % ID/g
- Organ distribution of F-18 signal, thyroid ([1]; 2 min post i.v. injection): 3.11 % ID/g
- Organ distribution of F-18 signal, thyroid ([1]; 5 min post i.v. injection): 2.41 % ID/g
- Organ distribution of F-18 signal, thyroid ([1]; 30 min post i.v. injection): 1.08 % ID/g
- Organ distribution of F-18 signal, thyroid ([1]; 60 min post i.v. injection): 0.50 % ID/g
- Organ distribution of F-18 signal, thyroid ([1]; 240 min post i.v. injection): 0.19 % ID/g
- autoradiographical analysis of binding to cryosections from cortex (Aβ plaques): Specific binding in plaque-rich regions of AD samples
